Results on two compounds are retold here after BindingDB's records for doi:10.1016/j.bmc.2006.09.058 (Purdue University, 2007).

This assay concerns the target Sodium-dependent serotonin transporter (Homo sapiens, UniProt P31645, W103C). Put plainly: Decrease in [3H]5-HT uptake at human SERT W103C mutant transfected in HEK293 cells.

Sequence of Sodium-dependent serotonin transporter (P31645 whole entry W103C): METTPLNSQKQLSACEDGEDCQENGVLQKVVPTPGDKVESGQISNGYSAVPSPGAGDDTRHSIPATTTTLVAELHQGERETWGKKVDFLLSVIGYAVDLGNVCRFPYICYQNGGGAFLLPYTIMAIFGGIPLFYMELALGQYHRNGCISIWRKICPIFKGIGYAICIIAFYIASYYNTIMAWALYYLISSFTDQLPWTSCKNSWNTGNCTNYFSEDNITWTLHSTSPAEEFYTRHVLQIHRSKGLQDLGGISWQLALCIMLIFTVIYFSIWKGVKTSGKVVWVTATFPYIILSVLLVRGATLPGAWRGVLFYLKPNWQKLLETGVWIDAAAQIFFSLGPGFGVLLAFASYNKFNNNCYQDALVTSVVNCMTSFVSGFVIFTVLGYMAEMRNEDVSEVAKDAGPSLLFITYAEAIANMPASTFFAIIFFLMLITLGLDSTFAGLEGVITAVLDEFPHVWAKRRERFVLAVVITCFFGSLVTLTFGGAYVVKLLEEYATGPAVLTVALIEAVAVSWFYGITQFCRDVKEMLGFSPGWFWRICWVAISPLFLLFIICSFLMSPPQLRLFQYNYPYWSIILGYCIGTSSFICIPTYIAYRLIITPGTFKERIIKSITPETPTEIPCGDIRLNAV

For `C[n+]1ccc(-c2ccc(SS(C)(=O)=O)cc2)cc1`, the midpoint of the response, the EC50, lay at 31.6 µM. In turn, `C[N+](C)(C)CCSS(C)(=O)=O` displayed an EC50 of 501 µM.

What is called EC50 is the concentration that produces a half-maximal response. Read a high EC50 as a less potent agent.
